The source of these data is the supplement of paper PMC10307832.

What all share (test): relative viability (nuclei count vs DMSO), 5 days (fraction); higher = more cells survive
Compound in the assay “OSI-027 + Tozasertib”: COc1cccc2cc(-c3nc([C@H]4CC[C@H](C(=O)O)CC4)n4ncnc(N)c34)[nH]c12 [OSI-027] + Cc1cc(Nc2cc(N3CCN(C)CC3)nc(Sc3ccc(NC(=O)C4CC4)cc3)n2)n[nH]1 [Tozasertib] (partner 0.1 µM)
In short, it runs like this: (§1)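 Medians of duplicate plates are given as relative viability. That measure is the nuclei count in treated wells divided by the count in vehicle wells. Counts were taken on 4× images of lung cancer cell lines in 1536-well plates, 5 days after pin-tool dosing the day after seeding with one drug alone or a fixed anchor-drug dose plus five library-drug doses (not always all listed) in √10 steps.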

Compound in the assay “Vemurafenib + Alpelisib”: CCCS(=O)(=O)Nc1ccc(F)c(C(=O)c2c[nH]c3ncc(-c4ccc(Cl)cc4)cc23)c1F [Vemurafenib] + Cc1nc(NC(=O)N2CCC[C@H]2C(N)=O)sc1-c1ccnc(C(C)(C)C(F)(F)F)c1 [Alpelisib] (partner 2 µM)
An outline of the steps:
as §1

Compound in the assay “Alpelisib + Crizotinib”: Cc1nc(NC(=O)N2CCC[C@H]2C(N)=O)sc1-c1ccnc(C(C)(C)C(F)(F)F)c1 [Alpelisib] + C[C@@H](Oc1cc(-c2cnn(C3CCNCC3)c2)cnc1N)c1c(Cl)ccc(F)c1Cl [Crizotinib] (partner 1 µM)
In short, it runs like this:
as §1

Compound in the assay “OSI-027 + Olaparib”: COc1cccc2cc(-c3nc([C@H]4CC[C@H](C(=O)O)CC4)n4ncnc(N)c34)[nH]c12 [OSI-027] + O=C(c1cc(Cc2n[nH]c(=O)c3ccccc23)ccc1F)N1CCN(C(=O)C2CC2)CC1 [Olaparib] (partner 8 µM)
In short, it runs like this: as §1

For the cell line LCLC-103H, the relative viability with OSI-027 + Tozasertib (first compound 0.01 µM) turned out to be 0.49; in the assay with OSI-027 + Tozasertib (first compound 0.03162 µM), 0.424; in the assay with OSI-027 + Tozasertib (first compound 0.1 µM) it was 0.489; with OSI-027 + Tozasertib (first compound 0.3162 µM), 0.44; with OSI-027 + Tozasertib (first compound 1 µM) it was 0.333; with Vemurafenib + Alpelisib (first compound 0.03162 µM), 0.901. Besides, the relative viability with Vemurafenib + Alpelisib (first compound 0.1 µM) stood at 0.883; with Vemurafenib + Alpelisib (first compound 0.3162 µM), 1.02; in the assay with Vemurafenib + Alpelisib (first compound 1 µM), 1.04; in the assay with Alpelisib + Crizotinib (first compound 0.04 µM) it was 0.928; in the assay with Alpelisib + Crizotinib (first compound 0.1265 µM) it was 0.976; with Alpelisib + Crizotinib (first compound 0.4 µM), 1.05. For the same cell line, the relative viability was 0.899 in the assay with Alpelisib + Crizotinib (first compound 1.265 µM); 0.787 with Alpelisib + Crizotinib (first compound 4 µM); 0.731 with OSI-027 + Olaparib (first compound 0.01 µM); 0.753 in the assay with OSI-027 + Olaparib (first compound 0.03162 µM); 0.749 with OSI-027 + Olaparib (first compound 0.1 µM); 0.702 with OSI-027 + Olaparib (first compound 0.3162 µM). Also, the relative viability with OSI-027 + Olaparib (first compound 1 µM) was 0.817.
As for HARA, the relative viability with OSI-027 + Tozasertib (first compound 0.01 µM) was determined as 0.472; in the assay with OSI-027 + Tozasertib (first compound 0.03162 µM) it was 0.099; in the assay with OSI-027 + Tozasertib (first compound 0.1 µM) it was 0.115; with OSI-027 + Tozasertib (first compound 0.3162 µM) it was 0.0843; with OSI-027 + Tozasertib (first compound 1 µM), 0.106; in the assay with Vemurafenib + Alpelisib (first compound 0.03162 µM), 0.801. In addition, the relative viability with Vemurafenib + Alpelisib (first compound 0.3162 µM) came to 0.879; with Vemurafenib + Alpelisib (first compound 1 µM), 0.823; in the assay with Alpelisib + Crizotinib (first compound 0.04 µM) it was 1.04; in the assay with Alpelisib + Crizotinib (first compound 0.1265 µM) it was 1.03; with Alpelisib + Crizotinib (first compound 0.4 µM), 1.15; in the assay with Alpelisib + Crizotinib (first compound 1.265 µM), 0.845. For the same cell line, the relative viability with Alpelisib + Crizotinib (first compound 4 µM) is 0.622; in the assay with OSI-027 + Olaparib (first compound 0.01 µM), 0.771; with OSI-027 + Olaparib (first compound 0.03162 µM), 0.499; with OSI-027 + Olaparib (first compound 0.1 µM), 0.841; with OSI-027 + Olaparib (first compound 0.3162 µM), 0.616; with OSI-027 + Olaparib (first compound 1 µM), 0.352.
For NCI-H2087, the relative viability turned out to be 0.228 with OSI-027 + Tozasertib (first compound 0.01 µM); 0.254 with OSI-027 + Tozasertib (first compound 0.03162 µM); 0.257 in the assay with OSI-027 + Tozasertib (first compound 0.1 µM); 0.234 with OSI-027 + Tozasertib (first compound 0.3162 µM); 0.188 in the assay with OSI-027 + Tozasertib (first compound 1 µM); 1.08 with Vemurafenib + Alpelisib (first compound 0.03162 µM). For the same cell line, the relative viability with Vemurafenib + Alpelisib (first compound 0.1 µM) is 1.02; with Vemurafenib + Alpelisib (first compound 1 µM) it was 1.07; with Alpelisib + Crizotinib (first compound 0.04 µM) it was 0.781; in the assay with Alpelisib + Crizotinib (first compound 0.1265 µM) it was 0.892; in the assay with Alpelisib + Crizotinib (first compound 0.4 µM), 0.958; in the assay with Alpelisib + Crizotinib (first compound 1.265 µM), 0.732. Moreover, the relative viability in the assay with Alpelisib + Crizotinib (first compound 4 µM) turned out to be 0.658; with OSI-027 + Olaparib (first compound 0.01 µM), 0.757; with OSI-027 + Olaparib (first compound 0.03162 µM), 0.675; with OSI-027 + Olaparib (first compound 0.1 µM), 0.586; with OSI-027 + Olaparib (first compound 0.3162 µM), 0.542; in the assay with OSI-027 + Olaparib (first compound 1 µM), 0.259.
For the cell line NCI-H520, the relative viability in the assay with OSI-027 + Tozasertib (first compound 0.01 µM) amounted to 0.429; with OSI-027 + Tozasertib (first compound 0.03162 µM), 0.385; with OSI-027 + Tozasertib (first compound 0.1 µM), 0.396; with OSI-027 + Tozasertib (first compound 0.3162 µM), 0.339; with OSI-027 + Tozasertib (first compound 1 µM), 0.193; with Vemurafenib + Alpelisib (first compound 0.03162 µM), 0.979. Also, the relative viability came to 1.05 with Vemurafenib + Alpelisib (first compound 0.1 µM); 0.94 in the assay with Vemurafenib + Alpelisib (first compound 0.3162 µM); 0.793 with Vemurafenib + Alpelisib (first compound 1 µM); 0.823 in the assay with Alpelisib + Crizotinib (first compound 0.04 µM); 0.75 in the assay with Alpelisib + Crizotinib (first compound 0.1265 µM); 0.739 with Alpelisib + Crizotinib (first compound 0.4 µM). Further, the relative viability with Alpelisib + Crizotinib (first compound 1.265 µM) was determined as 0.463; in the assay with Alpelisib + Crizotinib (first compound 4 µM), 0.515; in the assay with OSI-027 + Olaparib (first compound 0.01 µM), 0.286; with OSI-027 + Olaparib (first compound 0.03162 µM), 0.313; in the assay with OSI-027 + Olaparib (first compound 0.1 µM), 0.293; with OSI-027 + Olaparib (first compound 0.3162 µM), 0.216. For the same cell line, the relative viability with OSI-027 + Olaparib (first compound 1 µM) was 0.208.
Turning to HCC-78, the relative viability with OSI-027 + Tozasertib (first compound 0.01 µM) was determined as 0.506; with OSI-027 + Tozasertib (first compound 0.03162 µM), 0.374; in the assay with OSI-027 + Tozasertib (first compound 0.1 µM), 0.435; in the assay with OSI-027 + Tozasertib (first compound 0.3162 µM), 0.334; with OSI-027 + Tozasertib (first compound 1 µM) it was 0.241; with Vemurafenib + Alpelisib (first compound 0.03162 µM) it was 0.351. In addition, the relative viability with Vemurafenib + Alpelisib (first compound 0.1 µM) came out at 0.249; in the assay with Vemurafenib + Alpelisib (first compound 0.3162 µM) it was 0.663; with Vemurafenib + Alpelisib (first compound 1 µM), 0.361; with Alpelisib + Crizotinib (first compound 0.04 µM) it was 0.289; with Alpelisib + Crizotinib (first compound 0.1265 µM), 0.294; with Alpelisib + Crizotinib (first compound 0.4 µM) it was 0.318. Also, the relative viability with Alpelisib + Crizotinib (first compound 1.265 µM) came out at 0.234; in the assay with Alpelisib + Crizotinib (first compound 4 µM), 0.242; with OSI-027 + Olaparib (first compound 0.01 µM), 0.769; with OSI-027 + Olaparib (first compound 0.03162 µM), 0.699; in the assay with OSI-027 + Olaparib (first compound 0.1 µM), 0.723; with OSI-027 + Olaparib (first compound 0.3162 µM), 0.558. Also, the relative viability with OSI-027 + Olaparib (first compound 1 µM) was found to be 0.397.
For the cell line COR-L 105, the relative viability with OSI-027 + Tozasertib (first compound 0.01 µM) amounted to 0.335; with OSI-027 + Tozasertib (first compound 0.03162 µM) it was 0.336; with OSI-027 + Tozasertib (first compound 0.1 µM) it was 0.374; with OSI-027 + Tozasertib (first compound 0.3162 µM), 0.371; in the assay with OSI-027 + Tozasertib (first compound 1 µM), 0.411; in the assay with Vemurafenib + Alpelisib (first compound 0.03162 µM), 0.936. Moreover, the relative viability with Vemurafenib + Alpelisib (first compound 0.3162 µM) worked out at 1.11; in the assay with Vemurafenib + Alpelisib (first compound 1 µM), 0.839; in the assay with Alpelisib + Crizotinib (first compound 0.04 µM), 0.697; in the assay with Alpelisib + Crizotinib (first compound 0.1265 µM) it was 1; with Alpelisib + Crizotinib (first compound 0.4 µM), 0.879; in the assay with Alpelisib + Crizotinib (first compound 1.265 µM), 0.691. For the same cell line, the relative viability with Alpelisib + Crizotinib (first compound 4 µM) was found to be 0.695; in the assay with OSI-027 + Olaparib (first compound 0.01 µM), 0.713; with OSI-027 + Olaparib (first compound 0.03162 µM), 0.722; with OSI-027 + Olaparib (first compound 0.1 µM) it was 0.726; with OSI-027 + Olaparib (first compound 0.3162 µM) it was 0.571; in the assay with OSI-027 + Olaparib (first compound 1 µM), 0.685.
On to NCI-H1437, for which the relative viability amounted to 0.418 in the assay with OSI-027 + Tozasertib (first compound 0.01 µM); 0.379 with OSI-027 + Tozasertib (first compound 0.03162 µM); 0.456 in the assay with OSI-027 + Tozasertib (first compound 0.1 µM); 0.413 with OSI-027 + Tozasertib (first compound 0.3162 µM); 0.318 in the assay with OSI-027 + Tozasertib (first compound 1 µM); 0.915 with Vemurafenib + Alpelisib (first compound 0.03162 µM). The relative viability with Vemurafenib + Alpelisib (first compound 0.1 µM) was 0.96; with Vemurafenib + Alpelisib (first compound 0.3162 µM) it was 0.842; with Vemurafenib + Alpelisib (first compound 1 µM), 0.901; in the assay with Alpelisib + Crizotinib (first compound 0.04 µM), 0.904; in the assay with Alpelisib + Crizotinib (first compound 0.1265 µM), 0.919; with Alpelisib + Crizotinib (first compound 0.4 µM), 1. For the same cell line, the relative viability in the assay with Alpelisib + Crizotinib (first compound 1.265 µM) worked out at 0.906; with Alpelisib + Crizotinib (first compound 4 µM) it was 0.942; in the assay with OSI-027 + Olaparib (first compound 0.01 µM) it was 0.646; in the assay with OSI-027 + Olaparib (first compound 0.03162 µM), 0.664; with OSI-027 + Olaparib (first compound 0.1 µM) it was 0.63; with OSI-027 + Olaparib (first compound 0.3162 µM), 0.644. Moreover, the relative viability in the assay with OSI-027 + Olaparib (first compound 1 µM) is 0.53.
